Assay results published in PMC5218480 (PLoS ONE, 2017).

Test system: MV-4-11 cells
Assay: Gene expression microarray analysis (Affymetrix PrimeView) and GSEA
Assay type: cell-based, human
Set-up: RFU PODN (11730768_x_at) / Fold change /veh PODN (11730768_x_at) / RFU LINC00158 (11744669_a_at) / Fold change /veh LINC00158 (11744669_a_at) / RFU DUSP10 (11751237_a_at) / Fold change /veh DUSP10 (11751237_a_at) / RFU ID3 (11757404_x_at) / Fold change /veh ID3 (11757404_x_at) / RFU PLEKHG5 (11737974_s_at) / Fold change /veh PLEKHG5 (11737974_s_at) / RFU LRRC4B (11730491_at) / Fold change /veh LRRC4B (11730491_at) / RFU GIMAP4 (11747438_a_at) / Fold change /veh GIMAP4 (11747438_a_at) / RFU KRT8 (11758183_x_at) / Fold change /veh KRT8 (11758183_x_at) / RFU CNN1 (11734310_a_at) / Fold change /veh CNN1 (11734310_a_at) / RFU VPS37D (11726825_at) / Fold change /veh VPS37D (11726825_at) / RFU C10orf10 (11716522_x_at) / Fold change /veh C10orf10 (11716522_x_at) / RFU KIR2DL2 /// KIR2DL4 /// KIR2DL5A /// KIR2DL5B /// KIR2DS1 /// KIR2DS2 /// KIR2DS3 /// KIR2DS4 /// KIR3DL3 /// KIR3DL3 /// KIR3DS1 (11738374_at) / Fold change /veh KIR2DL2 /// KIR2DL4 /// KIR2DL5A /// KIR2DL5B /// KIR2DS1 /// KIR2DS2 /// KIR2DS3 /// KIR2DS4 /// KIR3DL3 /// KIR3DL3 /// KIR3DS1 (11738374_at) / RFU C1QL1 (11718748_at) / Fold change /veh C1QL1 (11718748_at) / RFU TMPRSS4 (11747572_a_at) / Fold change /veh TMPRSS4 (11747572_a_at) / RFU HAMP (11756126_x_at) / Fold change /veh HAMP (11756126_x_at) / RFU RNFT2 (11725882_a_at) / Fold change /veh RNFT2 (11725882_a_at) / RFU NR4A2 (11747474_a_at) / Fold change /veh NR4A2 (11747474_a_at) / RFU ABCC12 (11746883_a_at) / Fold change /veh ABCC12 (11746883_a_at) / RFU TMEM136 (11760407_x_at) / Fold change /veh TMEM136 (11760407_x_at) / RFU CLDN22 /// WWC2 (11732394_at) / Fold change /veh CLDN22 /// WWC2 (11732394_at) / RFU HLA-DPB1 (11760878_x_at) / Fold change /veh HLA-DPB1 (11760878_x_at) / RFU SPINT1 (11716480_a_at) / Fold change /veh SPINT1 (11716480_a_at) / RFU GAP43 (11754022_s_at) / Fold change /veh GAP43 (11754022_s_at) / RFU A4GNT (11735810_at) / Fold change /veh A4GNT (11735810_at) / RFU PRB3 (11715151_x_at) / Fold change /veh PRB3 (11715151_x_at) / RFU TUBB4B (11761932_at) / Fold change /veh TUBB4B (11761932_at) / RFU CAPN14 (11732068_a_at) / Fold change /veh CAPN14 (11732068_a_at) / RFU TMCC2 (11721928_a_at) / Fold change /veh TMCC2 (11721928_a_at) / RFU IRGQ (11745062_a_at) / Fold change /veh IRGQ (11745062_a_at) / RFU FAM174B (11720279_a_at) / Fold change /veh FAM174B (11720279_a_at) / RFU TMPRSS4 (11748680_a_at) / Fold change /veh TMPRSS4 (11748680_a_at) / RFU FAM212B (11763350_a_at) / Fold change /veh FAM212B (11763350_a_at) / RFU PLEKHG5 (11743358_a_at) / Fold change /veh PLEKHG5 (11743358_a_at) / RFU ZSCAN30 (11745921_a_at) / Fold change /veh ZSCAN30 (11745921_a_at) / RFU CMKLR1 (11741424_a_at) / Fold change /veh CMKLR1 (11741424_a_at) / RFU LOC101060620 /// MAPK8IP1 (11723275_at) / Fold change /veh LOC101060620 /// MAPK8IP1 (11723275_at) / RFU SPTSSB (11747773_x_at) / Fold change /veh SPTSSB (11747773_x_at) / RFU PRSS12 (11739890_at) / Fold change /veh PRSS12 (11739890_at) / RFU BIN1 (11741810_x_at) / Fold change /veh BIN1 (11741810_x_at) / RFU WNT11 (11732464_a_at) / Fold change /veh WNT11 (11732464_a_at) / RFU C10orf10 (11716521_a_at) / Fold change /veh C10orf10 (11716521_a_at) / RFU C5orf56 (11738089_at) / Fold change /veh C5orf56 (11738089_at) / RFU CYB561 (11721691_x_at) / Fold change /veh CYB561 (11721691_x_at) / RFU ANKRD19P (11752326_a_at) / Fold change /veh ANKRD19P (11752326_a_at) / RFU OR2T12 /// OR2T33 /// OR2T8 (11738714_s_at) / Fold change /veh OR2T12 /// OR2T33 /// OR2T8 (11738714_s_at) / RFU VCAN (11748164_a_at) / Fold change /veh VCAN (11748164_a_at) / RFU JSRP1 (11732532_at) / Fold change /veh JSRP1 (11732532_at) / RFU KRTAP10-11 (11738290_x_at) / Fold change /veh KRTAP10-11 (11738290_x_at) / RFU MYO3A (11730013_a_at) / Fold change /veh MYO3A (11730013_a_at) / RFU EBF3 (11725865_a_at) / Fold change /veh EBF3 (11725865_a_at) / RFU CAMK2N1 (11719241_x_at) / Fold change /veh CAMK2N1 (11719241_x_at) / RFU C5orf56 (11738088_a_at) / Fold change /veh C5orf56 (11738088_a_at) / RFU OLFML3 (11715873_a_at) / Fold change /veh OLFML3 (11715873_a_at) / RFU LOC100653217 /// NTM (11731650_a_at) / Fold change /veh LOC100653217 /// NTM (11731650_a_at) / RFU MAPK11 (11762145_a_at) / Fold change /veh MAPK11 (11762145_a_at) / RFU FIZ1 (11724087_x_at) / Fold change /veh FIZ1 (11724087_x_at) / RFU OASL (11726364_x_at) / Fold change /veh OASL (11726364_x_at) / RFU SOX15 (11748057_x_at) / Fold change /veh SOX15 (11748057_x_at) / RFU CD79A (11719716_a_at) / Fold change /veh CD79A (11719716_a_at) / RFU HIST1H1D (11736915_at) / Fold change /veh HIST1H1D (11736915_at) / RFU CASKIN2 (11723855_a_at) / Fold change /veh CASKIN2 (11723855_a_at) / RFU LOC730098 (11760151_x_at) / Fold change /veh LOC730098 (11760151_x_at) / RFU OR4N2 (11742367_at) / Fold change /veh OR4N2 (11742367_at) / RFU PRRT2 (11749266_a_at) / Fold change /veh PRRT2 (11749266_a_at) / RFU SNX32 (11753110_a_at) / Fold change /veh SNX32 (11753110_a_at) / RFU CDHR5 (11726645_a_at) / Fold change /veh CDHR5 (11726645_a_at) / RFU RCAN1 (11760418_a_at) / Fold change /veh RCAN1 (11760418_a_at) / RFU FAM167A (11723789_a_at) / Fold change /veh FAM167A (11723789_a_at) / RFU FAM26E (11764081_at) / Fold change /veh FAM26E (11764081_at) / RFU ISYNA1 (11749810_s_at) / Fold change /veh ISYNA1 (11749810_s_at) / RFU ACY1 (11761880_at) / Fold change /veh ACY1 (11761880_at) / RFU 11764098_at / Fold change /veh 11764098_at / RFU SAMD14 (11745864_x_at) / Fold change /veh SAMD14 (11745864_x_at) / RFU NPB (11741838_a_at) / Fold change /veh NPB (11741838_a_at) / RFU TMPRSS6 (11731388_a_at) / Fold change /veh TMPRSS6 (11731388_a_at) / RFU KRTAP10-2 (11738614_at) / Fold change /veh KRTAP10-2 (11738614_at) / RFU ARHGAP8 /// PRR5-ARHGAP8 (11727945_x_at) / Fold change /veh ARHGAP8 /// PRR5-ARHGAP8 (11727945_x_at) / RFU KRTAP5-7 /// NADSYN1 (11734609_at) / Fold change /veh KRTAP5-7 /// NADSYN1 (11734609_at) / RFU RASL12 (11751679_a_at) / Fold change /veh RASL12 (11751679_a_at) / RFU CDKN2B (11736163_a_at) / Fold change /veh CDKN2B (11736163_a_at) / RFU PRF1 (11729649_at) / Fold change /veh PRF1 (11729649_at) / RFU, ZNF638 /// ZNF638-IT1 / Fold change vs veh, ZNF638 /// ZNF638-IT1 / RFU, PANK3 / Fold change vs veh, PANK3 / RFU, SH3YL1 / Fold change vs veh, SH3YL1 / RFU, ZEB2 / Fold change vs veh, ZEB2 / RFU, NRIP1 / Fold change vs veh, NRIP1 / RFU, PTTG1IP / Fold change vs veh, PTTG1IP / RFU, CAPN2 / Fold change vs veh, CAPN2 / RFU, MED14 / Fold change vs veh, MED14 / RFU, SNORA58 / Fold change vs veh, SNORA58 / RFU, C1orf63 / Fold change vs veh, C1orf63 / RFU, LRRFIP1 / Fold change vs veh, LRRFIP1 / RFU, NDUFAF7 / Fold change vs veh, NDUFAF7 / RFU, SLC12A2 / Fold change vs veh, SLC12A2 / RFU, IBTK / Fold change vs veh, IBTK / RFU, ESF1 / Fold change vs veh, ESF1 / Fold change vs veh, TMEM50B / RFU, TAOK1 / Fold change vs veh, TAOK1 / RFU, ACBD3 / Fold change vs veh, ACBD3 / RFU, TMA16 / Fold change vs veh, TMA16 / RFU, RWDD3 / Fold change vs veh, RWDD3 / RFU, BCAT1 / Fold change vs veh, BCAT1 / RFU, EDEM3 / Fold change vs veh, EDEM3 / RFU, TMEM33 / Fold change vs veh, TMEM33 / RFU, WDR75 / Fold change vs veh, WDR75 / RFU, AHCTF1 / Fold change vs veh, AHCTF1 / RFU, TFRC / Fold change vs veh, TFRC / RFU, ZDHHC17 / Fold change vs veh, ZDHHC17 / RFU, NOM1 / Fold change vs veh, NOM1 / RFU, ARL8B / Fold change vs veh, ARL8B / RFU, ZBTB11 / Fold change vs veh, ZBTB11 / RFU, TAMM41 / Fold change vs veh, TAMM41 / RFU, KIAA1704 /// LOC100996395 / Fold change vs veh, KIAA1704 /// LOC100996395 / RFU, ING1 / Fold change vs veh, ING1 / RFU, TRMT61B / Fold change vs veh, TRMT61B / RFU, FUBP3 / Fold change vs veh, FUBP3 / RFU, TP53 / Fold change vs veh, TP53 / RFU, TNKS2 / Fold change vs veh, TNKS2 / RFU, ZFP14 / Fold change vs veh, ZFP14 / RFU, ACTR2 / Fold change vs veh, ACTR2 / RFU, PPP3R1 / Fold change vs veh, PPP3R1 / RFU, PIK3R1 / Fold change vs veh, PIK3R1 / RFU, HNRNPA1 / Fold change vs veh, HNRNPA1 / RFU, RNF170 / Fold change vs veh, RNF170 / RFU, ZNF28 / Fold change vs veh, ZNF28 / RFU, RNGTT / Fold change vs veh, RNGTT / RFU, OGT / Fold change vs veh, OGT / RFU, BRD1 / Fold change vs veh, BRD1 / RFU, MARS / Fold change vs veh, MARS / RFU, ZNF655 / Fold change vs veh, ZNF655 / RFU, FAHD1 / Fold change vs veh, FAHD1 / RFU, BDP1 / Fold change vs veh, BDP1 / RFU, LRRCC1 / Fold change vs veh, LRRCC1 / RFU, ARID1A / Fold change vs veh, ARID1A / RFU, ZNF146 / Fold change vs veh, ZNF146 / RFU, ZNF330 / Fold change vs veh, ZNF330 / RFU, GPN3 / Fold change vs veh, GPN3 / RFU, C9orf123 / Fold change vs veh, C9orf123 / RFU, N4BP2L2 / Fold change vs veh, N4BP2L2 / RFU, ARFIP1 / Fold change vs veh, ARFIP1 / RFU, FAM179B / Fold change vs veh, FAM179B / RFU, BCL10 / Fold change vs veh, BCL10 / RFU, UHRF1BP1L / Fold change vs veh, UHRF1BP1L / RFU, BET1 / Fold change vs veh, BET1 / RFU, CNOT2 / Fold change vs veh, CNOT2 / RFU, ZNF268 / Fold change vs veh, ZNF268 / Fold change vs veh, ZNF507 / RFU, DGCR2 / Fold change vs veh, DGCR2 / RFU, WDSUB1 / Fold change vs veh, WDSUB1 / Fold change vs veh, HSP90B1 /// MIR3652 / RFU, ADSS / Fold change vs veh, ADSS / RFU, GK / Fold change vs veh, GK / RFU, ZNF148 / Fold change vs veh, ZNF148 / RFU, TAF9 / Fold change vs veh, TAF9 / RFU, SLC1A5 / Fold change vs veh, SLC1A5 / RFU, SLMO2 / Fold change vs veh, SLMO2 / RFU, ABCC4 / Fold change vs veh, ABCC4 / RFU, LOC101060439 /// RAP1B / Fold change vs veh, LOC101060439 /// RAP1B / RFU, RFX7 / Fold change vs veh, RFX7 / RFU, GTPBP10 / Fold change vs veh, GTPBP10 / RFU, CNEP1R1 / Fold change vs veh, CNEP1R1 / RFU, BIVM-ERCC5 /// ERCC5 / Fold change vs veh, BIVM-ERCC5 /// ERCC5 / RFU, ILF3 / Fold change vs veh, ILF3 / RFU 11762660_at / Fold change /veh 11762660_at / RFU VCAN (11757783_s_at) / Fold change /veh VCAN (11757783_s_at) / RFU DDX43 (11728927_at) / Fold change /veh DDX43 (11728927_at) / RFU KRT8 (11758188_x_at) / Fold change /veh KRT8 (11758188_x_at) / RFU NKD1 (11759106_at) / Fold change /veh NKD1 (11759106_at) / RFU SRD5A1 (11742802_a_at) / Fold change /veh SRD5A1 (11742802_a_at) / RFU TPSAB1 /// TPSB2 (11721975_s_at) / Fold change /veh TPSAB1 /// TPSB2 (11721975_s_at) / RFU GSTM3 (11746129_a_at) / Fold change /veh GSTM3 (11746129_a_at) / RFU IL23R (11737362_x_at) / Fold change /veh IL23R (11737362_x_at) / RFU TMEM51 (11727254_a_at) / Fold change /veh TMEM51 (11727254_a_at) / RFU PIWIL2 (11732686_x_at) / Fold change /veh PIWIL2 (11732686_x_at) / RFU ORM1 (11744905_x_at) / Fold change /veh ORM1 (11744905_x_at) / RFU CCDC152 (11743942_at) / Fold change /veh CCDC152 (11743942_at) / RFU ECM1 (11717891_a_at) / Fold change /veh ECM1 (11717891_a_at) / RFU IL23R (11748794_a_at) / Fold change /veh IL23R (11748794_a_at) / RFU TNFAIP8L3 (11732012_x_at) / Fold change /veh TNFAIP8L3 (11732012_x_at) / RFU MBOAT4 (11741988_at) / Fold change /veh MBOAT4 (11741988_at) / RFU 11764193_at / Fold change /veh 11764193_at / RFU TMEM53 (11763286_at) / Fold change /veh TMEM53 (11763286_at) / RFU MAGEB2 (11727129_at) / Fold change /veh MAGEB2 (11727129_at) / RFU TMEM200A (11744735_a_at) / Fold change /veh TMEM200A (11744735_a_at) / RFU CCDC152 (11751479_a_at) / Fold change /veh CCDC152 (11751479_a_at) / RFU FAM211A (11726209_a_at) / Fold change /veh FAM211A (11726209_a_at) / RFU RGS16 (11746705_a_at) / Fold change /veh RGS16 (11746705_a_at) / RFU VCAN (11755009_s_at) / Fold change /veh VCAN (11755009_s_at) / RFU RHOB (11743442_s_at) / Fold change /veh RHOB (11743442_s_at) / RFU RGS16 (11720943_a_at) / Fold change /veh RGS16 (11720943_a_at) / RFU RGS16 (11720944_at) / Fold change /veh RGS16 (11720944_at) / RFU, VPS4B / Fold change vs veh, VPS4B / RFU, CREB1 / Fold change vs veh, CREB1 / RFU, DNAJC13 / Fold change vs veh, DNAJC13 / RFU, GNAQ / Fold change vs veh, GNAQ / RFU, CDK5R1 / Fold change vs veh, CDK5R1 / RFU, ZRANB3 / Fold change vs veh, ZRANB3 / RFU, CUL4A / Fold change vs veh, CUL4A / RFU, CCNY / Fold change vs veh, CCNY / RFU, UFL1 / Fold change vs veh, UFL1 / RFU, COG3 / Fold change vs veh, COG3 / RFU, DIAPH2 / Fold change vs veh, DIAPH2 / RFU, SKA2 / Fold change vs veh, SKA2 / RFU, AFF3 / Fold change vs veh, AFF3 / RFU, LMF1 / Fold change vs veh, LMF1 / RFU, IPO11 / Fold change vs veh, IPO11 / RFU, DFFB / Fold change vs veh, DFFB / RFU, FOXP1 / Fold change vs veh, FOXP1 / RFU, CARD8 / Fold change vs veh, CARD8 / RFU, STRN3 / Fold change vs veh, STRN3 / RFU, ADK / Fold change vs veh, ADK / RFU, RASSF2 / Fold change vs veh, RASSF2 / RFU, WIPF1 / Fold change vs veh, WIPF1 / RFU, LARP1B / Fold change vs veh, LARP1B / RFU, RASA1 / Fold change vs veh, RASA1 / RFU, RB1 / Fold change vs veh, RB1 / RFU, PPFIA1 / Fold change vs veh, PPFIA1 / RFU, MAT2A / Fold change vs veh, MAT2A / RFU, CCT5 / Fold change vs veh, CCT5 / RFU, WDR92 / Fold change vs veh, WDR92 / RFU, CUX1 / Fold change vs veh, CUX1 / RFU, TTC7A / Fold change vs veh, TTC7A / RFU, TMEM135 / Fold change vs veh, TMEM135 / RFU, DEPTOR / Fold change vs veh, DEPTOR / RFU, CPM / Fold change vs veh, CPM / RFU, DNAJB6 / Fold change vs veh, DNAJB6 / RFU, CACNA2D3 / Fold change vs veh, CACNA2D3 / RFU, DTX4 / Fold change vs veh, DTX4 / RFU, TFCP2 / Fold change vs veh, TFCP2 / RFU, GMCL1 /// GMCL1P1 / Fold change vs veh, GMCL1 /// GMCL1P1 / RFU, AEBP2 / Fold change vs veh, AEBP2 / RFU, SNHG1 /// SNORD22 /// SNORD25 /// SNORD26 /// SNORD27 /// SNORD28 /// SNORD29 /// SNORD31 / Fold change vs veh, SNHG1 /// SNORD22 /// SNORD25 /// SNORD26 /// SNORD27 /// SNORD28 /// SNORD29 /// SNORD31 / Fold change (Aza/veh), C12orf56 (ProbeSet 11735607_a_at) / Fold change (ACY-1035/veh), C12orf56 (ProbeSet 11735607_a_at) / Fold change (Aza/veh), FGFR1OP (ProbeSet 11751329_s_at) / Fold change (ACY-1035/veh), FGFR1OP (ProbeSet 11751329_s_at) / Fold change (Aza/veh), VPS36 (ProbeSet 11739960_a_at) / Fold change (ACY-1035/veh), VPS36 (ProbeSet 11739960_a_at) / RFU SYPL1 (11715823_x_at) / Fold change /veh SYPL1 (11715823_x_at) / RFU IGFBP7 (11715501_s_at) / Fold change /veh IGFBP7 (11715501_s_at) / RFU REEP3 (11722064_at) / Fold change /veh REEP3 (11722064_at) / RFU IGLL1 (11728026_x_at) / Fold change /veh IGLL1 (11728026_x_at): dose or concentration left out as unconfirmed
Details: MV-4-11 cells, 48 hours

SMILES: Nc1ncn([C@@H]2O[C@H](CO)[C@@H](O)[C@H]2O)c(=O)n1 [azacitidine]
- RFU IGFBP7 (11715501_s_at): 202.56 RFU
